Key:
human skin = experiment: Skin irritation test of active ingredient (patch method, CTFA guidelines); assay type: in vivo; settings: for Test result (number of subject) (+) / Test result (number of subject) (−) / Test result (number of subject) (++) / Test result (number of subject) (±): 20 subjects, 24 hours patch; for Test result (number of subject) (+): apparent reddening; for Test result (number of subject) (−): no erythema or symptoms; for Test result (number of subject) (++): reddened and swollen; for Test result (number of subject) (±): slightly reddish; for Degree of irritation: Equation 1
Procedure: A total of 20 people (10 men and 10 women in their 20s and 30s) were tested for skin irritation using the patch method according to the guidelines of CTFA (The Cosmetic, Toiletry & Fragrance Association, Inc. Washington, D.C.).
A filter paper disk was placed in an 8 mm diameter, 10 panels of pin chamber.
After 24 hours, the pin chamber was removed, and skin conditions were visually observed. The degree and grade for skin irritation were calculated according to the following Equation 1, and the results are shown in Table 3 below.
[Criteria for Skin Irritation]
(−): No erythema or particularly no symptoms; (±): slightly reddish than the periphery; (+): Apparent reddening than periphery; (++): More reddened and swollen than periphery.
[Grade for Skin Irritation]
Degree of irritation 0-0.1: Grade I (unstimulated);
Degree of irritation 0.11-0.3: Grade II (weakly stimulated);
Degree of irritation 0.31-0.5: Grade III (moderately stimulated);
Degree of irritation 0.51 or more: Grade IV (strongly stimulated)

[1] = Formaldehyde removing ability test (GC); settings: 2.0% formaldehyde solution, 3 molar equivalents, room temperature

Compound	Grade (human skin; content 0.1%)	Test result (number of subject) (+) (human skin; content 0.1%)	Test result (number of subject) (−) (human skin; content 0.1%)	Test result (number of subject) (++) (human skin; content 0.1%)	Test result (number of subject) (±) (human skin; content 0.1%)	Degree of irritation (human skin; content 0.1%)	Grade (human skin; content 0.5%)	Test result (number of subject) (+) (human skin; content 0.5%)	Test result (number of subject) (−) (human skin; content 0.5%)	Test result (number of subject) (++) (human skin; content 0.5%)	Test result (number of subject) (±) (human skin; content 0.5%)	Degree of irritation (human skin; content 0.5%)	Grade (human skin; content 1.0%)	Test result (number of subject) (+) (human skin; content 1.0%)	Test result (number of subject) (−) (human skin; content 1.0%)	Test result (number of subject) (++) (human skin; content 1.0%)	Test result (number of subject) (±) (human skin; content 1.0%)	Degree of irritation (human skin; content 1.0%)	Area (formaldehyde, GC) ([1]; 30 min) [mAU * min]	Area (formaldehyde, GC) ([1]; 180 min) [mAU * min]	other results
C1CNCCNCCNCCN1 [Cyclen, 1,4,7,10-tetraazacyclododecane]	I (Degree of irritation 0-0.1: Grade I (unstimulated))	0	20	0	0	0	I (Degree of irritation 0-0.1: Grade I (unstimulated))	0	20	0	0	0	II (Degree of irritation 0.11-0.3: Grade II (weakly stimulated))	1	18	0	1	0.15	0.181	0	Area (formaldehyde, GC) ([1]; Initial): 0.305 mAU * min
O=C(O)CN(CCN(CCN(CC(=O)O)CC(=O)O)CC(=O)O)CCN(CC(=O)O)CC(=O)O [Embodiment 1, 3,6,9,12-tetrakis(carboxymethyl)-3,6,9,12-tetraazatetradecanedioic Acid]	I (Degree of irritation 0-0.1: Grade I (unstimulated))	0	20	0	0	0	I (Degree of irritation 0-0.1: Grade I (unstimulated))	0	19	0	1	0.05	II (Degree of irritation 0.11-0.3: Grade II (weakly stimulated))	0	16	0	4	0.20	0.170	0	Area (formaldehyde, GC) ([1]; Initial): 0.305 mAU * min
O=C(O)c1ccc(N(CCN(CCN(c2ccc(C(=O)O)cc2)c2ccc(C(=O)O)cc2)c2ccc(C(=O)O)cc2)CCN(c2ccc(C(=O)O)cc2)c2ccc(C(=O)O)cc2)cc1 [Embodiment 2, 4,4′,4″,4′″-(((ethane-1,2-diylbis((4-carboxyphenyl)azanediyl))bis(ethane-2,1-diyl))bis(azanetriyl))tetrabenzoic Acid]	I (Degree of irritation 0-0.1: Grade I (unstimulated))	0	20	0	0	0	I (Degree of irritation 0-0.1: Grade I (unstimulated))	0	20	0	0	0	I (Degree of irritation 0-0.1: Grade I (unstimulated))	0	19	0	1	0.05	0.168	0	Area (formaldehyde, GC) ([1]; Initial): 0.305 mAU * min
O=C(O)c1ccc(N(CCN(CCN(c2ccc(C(=O)O)o2)c2ccc(C(=O)O)o2)c2ccc(C(=O)O)o2)CCN(c2ccc(C(=O)O)o2)c2ccc(C(=O)O)o2)o1 [Embodiment 4, 5,5′,5″,5′″-(((ethane-1,2-diylbis((5-carboxyfuran-2-yl)azanediyl))bis(ethane-2,1-diyl))bis(azanetriyl))tetrakis(furan-2-carboxylic Acid)]	I (Degree of irritation 0-0.1: Grade I (unstimulated))	0	20	0	0	0	I (Degree of irritation 0-0.1: Grade I (unstimulated))	0	20	0	0	0	I (Degree of irritation 0-0.1: Grade I (unstimulated))	0	19	0	1	0.05	0.173	0	Area (formaldehyde, GC) ([1]; Initial): 0.305 mAU * min
O=C(O)CN1CCN(CC(=O)O)CCN(CC(=O)O)CCN(CC(=O)O)CC1 [Embodiment 5, 2,2′,2″,2′″-(1,4,7,10-tetraazacyclododecane-1,4,7,10-tetrayl)tetraacetic Acid]	I (Degree of irritation 0-0.1: Grade I (unstimulated))	0	20	0	0	0	I (Degree of irritation 0-0.1: Grade I (unstimulated))	0	20	0	0	0	I (Degree of irritation 0-0.1: Grade I (unstimulated))	0	19	0	1	0.05	0.179	0	Area (formaldehyde, GC) ([1]; Initial): 0.305 mAU * min
O=C(O)c1ccc(N2CCN(c3ccc(C(=O)O)cc3)CCN(c3ccc(C(=O)O)cc3)CCN(c3ccc(C(=O)O)cc3)CC2)cc1 [Embodiment 6, 4,4′,4″,4′″-(1,4,7,10-tetraazacyclododecane-1,4,7,10-tetrayl)tetrabenzoic Acid]	I (Degree of irritation 0-0.1: Grade I (unstimulated))	0	20	0	0	0	I (Degree of irritation 0-0.1: Grade I (unstimulated))	0	20	0	0	0	I (Degree of irritation 0-0.1: Grade I (unstimulated))	0	19	0	1	0.05	0.183	0	Area (formaldehyde, GC) ([1]; Initial): 0.305 mAU * min
O=C(O)c1cncc(N2CCN(c3cncc(C(=O)O)c3)CCN(c3cncc(C(=O)O)c3)CCN(c3cncc(C(=O)O)c3)CC2)c1 [Embodiment 7, 5,5′,5″,5′″-(1,4,7,10-tetraazacyclododecane-1,4,7,10-tetrayl)tetranicotinic Acid]	I (Degree of irritation 0-0.1: Grade I (unstimulated))	0	20	0	0	0	I (Degree of irritation 0-0.1: Grade I (unstimulated))	0	20	0	0	0	I (Degree of irritation 0-0.1: Grade I (unstimulated))	0	20	0	0	0	0.181	0	Area (formaldehyde, GC) ([1]; Initial): 0.305 mAU * min

— patent US11274268B2, “Detergent compositions for removing heavy metals and formaldehyde” (FNG RESEARCH CO., LTD., priority 2017, dated 2022)
